Patent US6489334B2, “Method for the crystallization of a tetrahydropyridin derivative and resulting crystalline forms” (Sanofi-Synthelabo, priority 1996, dated 2002)

Columns and labels:
[1] = system: CACO-2 monolayer; type: in vitro ADME
Description: A study concerning the determination of the in vitro absorption of SR 57746 A as a micronized form I/III mixture was carried out using the CACO-2 monolayer model. This test, which is widely used as a predictive intestinal epithelial model for drug absorption (P. Artusson, Crit. Rev. Ther. Drug, 1991, 8: 305-330), made it possible to show significant differences in terms of dissolution and permeability between SR 57746 A as a micronized form I/III mixture and the SR 57746 A obtained according to EP 0 101 381.

[2] = Phase I clinical trials on healthy volunteers; type: in vivo
[3] = preclinical animal pharmacology, toxicology and pharmacokinetic studies; type: in vivo, animals
[4] = system: amyotrophic lateral sclerosis; conditions: 2 mg/day; cited from earlier work

Row | Structure (SMILES) | dissolution and permeability after micronization [1] | rates of dissolution and permeability, compared between the two materials [1] | variability in the pharmacodynamic effects [2] | variability in the plasma concentrations [2] | pharmacokinetic studies on animals ([3]; animals) | activity and behavior in animal pharmacology and toxicology tests ([3]; preclinical trials) | clinical outcome in amyotrophic lateral sclerosis patients [4]
1 | Cl.FC(F)(F)c1cccc(C2=CCN(CCc3ccc4ccccc4c3)CC2)c1 [1-[2-(2-naphthyl)ethyl]-4-(3-trifluoromethylphenyl)-1,2,3,6-tetrahydropyridine hydrochloride] | normalized | significantly different |  |  |  |  | 
2 | Cl.FC(F)(F)c1cccc(C2=CCN(CCc3ccc4ccccc4c3)CC2)c1 [SR 57746 A, 1-[2-(2-naphthyl)ethyl]-4-(3-trifluoromethylphenyl)-1,2,3,6-tetrahydropyridine hydrochloride] |  |  | high variability | high variability | constant and reproducible results | constant activity and behavior | proved promising
